The record followed here is patent US20150274661A1, “INDOL-AMIDE COMPOUNDS AS BETA-AMYLOID INHBITORS” (Hoffmann-La Roche Inc., priority 2012, published 2015).

The test has as its system Aβ42 secretion. The test is described as follows: Cellular γ-secretase assay (inhibition of Aβ42 secretion). To be noted: Homo sapiens, 22 h, human neuroglioma H4 cells overexpressing human APP, 22 hours incubation. In kind it is cell-based. A digest of the protocol:
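H4 neuroglioma cells overexpressing human APP were exposed to compounds (ten-point dilution series, 0.4% DMSO) for 22 h at 37°C. Secreted Aβ42 in supernatant measured by electrochemiluminescence sandwich immunoassay (ruthenylated BAP15 detection, biotinylated 6E10 capture on streptavidin beads). IC50 by nonlinear regression.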

For the compound `CC(=O)N1CC[C@@H]([C@H](C)c2ccc3[nH]c(C(=O)Nc4cc(F)cc(F)c4)cc3c2)C1` [Example 122, 5-((S)-1-((S)-1-Acetylpyrrolidin-3-yl)ethyl)-N-(3,5-difluorophenyl)-1H-indole-2-carboxamide], the EC50 is 2070 nM.

For the compound `O=C(Nc1cc(F)cc(F)c1)c1cc2cc(/C=C/N3C(=O)[C@@H]4CC[C@H]3C4)ccc2[nH]1` [Example 101, 5-[(E)-2-((1S,4R)-3-Oxo-2-aza-bicyclo[2.2.1]hept-2-yl)-vinyl]-1H-indole-2-carboxylic acid (3,5-difluoro-phenyl)-amide], the EC50 is 3830 nM. With `N#CCN1CC[C@@H](c2ccc3[nH]c(C(=O)Nc4cccc(F)c4)cc3c2)C1` [Example 109, (S)-5-(1-(Cyanomethyl)pyrrolidin-3-yl)-N-(3-fluorophenyl)-1H-indole-2-carboxamide], a half-maximal effect (EC50) was put at 472 nM. With `O=C(Nc1cccc(F)c1)c1cc2cc([C@H]3CCCN(CCO)C3)ccc2[nH]1` [Example 114, (R)—N-(3-Fluorophenyl)-5-(1-(2-hydroxyethyl)piperidin-3-yl)-1H-indole-2-carboxamide] the figure was 273 nM; with `C=CCN1CCC(c2ccc3[nH]c(C(=O)Nc4ccc(F)cc4)cc3c2)CC1` [Example 39, 5-[1-Allyl-piperidin-4-yl]-1H-indole-2-carboxylic acid (4-fluoro-phenyl)-amide], 1320 nM; with `CC(c1ccc2[nH]c(C(=O)Nc3cc(F)cc(F)c3)cc2c1)C1CCN(CC#N)C1` (stereo not drawn) [Example 94, 5-(1-(1-(Cyanomethyl)pyrrolidin-3-yl)ethyl)-N-(3,5-difluorophenyl)-1H-indole-2-carboxamide], 1340 nM.

Consider `CC(C)N1CCC(c2ccc3[nH]c(C(=O)Nc4cncc(F)c4)cc3c2)C1` (stereo not drawn) [Example 76, N-(5-Fluoropyridin-3-yl)-5-(1-isopropylpyrrolidin-3-yl)-1H-indole-2-carboxamide], for which the EC50 was 796 nM.

On to `CCC(=O)N1CCC(c2ccc3[nH]c(C(=O)Nc4ccc(F)cc4)cc3c2)CC1` [Example 44, 5-(1-Propionyl-piperidin-4-yl)-1H-indole-2-carboxylic acid (4-fluoro-phenyl)-amide], for which the EC50 was found to be 4380 nM. In the case of `COCCN1CCCC(c2ccc3[nH]c(C(=O)Nc4cc(F)cc(F)c4)cc3c2)C1` (stereo not drawn) [Example 60, 5-[1-(2-Methoxy-ethyl)-piperidin-3-yl]-1H-indole-2-carboxylic acid (3,5-difluoro-phenyl)-amide], the EC50 was 1380 nM. With `O=C(Nc1cccc(F)c1)c1cc2cc(C3CCCN(CC4CCCO4)C3)ccc2[nH]1` (stereo not drawn) [Example 68, N-(3-Fluorophenyl)-5-(1-((tetrahydrofuran-2-yl)methyl)piperidin-3-yl)-1H-indole-2-carboxamide] the figure was 777 nM; with `C[C@H](CN1CCCC1)c1ccc2[nH]c(C(=O)Nc3cccc(F)c3)cc2c1` [Example 118], 753 nM; with `CC(C)N1CCC(c2ccc3[nH]c(C(=O)Nc4cccc(Cl)c4)cc3c2)CC1` [Example 23, 5-(1-Isopropyl-piperidin-4-yl)-1H-indole-2-carboxylic acid (3-chloro-phenyl)-amide], 897 nM. In the case of `O=C(Nc1cccc(F)c1)c1cc2cc(C3CCN(Cc4ccccc4)C3)ccc2[nH]1` (stereo not drawn) [Example 3, 5-(1-Benzylpyrrolidin-3-yl)-N-(3-fluorophenyl)-1H-indole-2-carboxamide], a half-maximal response (EC50) required 1240 nM. Take `CC(C)N1CCC(c2ccc3[nH]c(C(=O)Nc4cccc(F)c4)cc3c2)CC1` [Example 20, 5-(1-Isopropyl-piperidin-4-yl)-1H-indole-2-carboxylic acid (3-fluoro-phenyl)-amide]: the EC50 is 832 nM. `N#CCN1CCC(c2ccc3c(c2)cc(C(=O)Nc2cncc(F)c2)n3CC#N)C1` (stereo not drawn) [Example 81, 1-Cyanomethyl-5-(1-cyanomethyl-pyrrolidin-3-yl)-1H-indole-2-carboxylic acid (5-fluoro-pyridin-3-yl)-amide] registered an EC50 of 4250 nM.

As usually defined, the EC50 is the concentration that produces a half-maximal response. The low end stands for higher potency in that assay, the high end for lower potency in that assay.
